The conditions of data set [1]: cited from earlier work.
A further data set deals with Aedes aegypti. The data set can be described thus: Burning coil trial in ventilated 20 cubic metre test chamber with human subject: landing/bite inhibition, knockdown, 24 hour mortality. Type of data set: in vivo. The conditions noted are these: for % KD (15 mins) / 24 hour % mortality (15 mins exposure): 15 minutes exposure; for 24 hour % mortality (15 mins exposure): dead after 24 hours; for % bite inhibition / % landing inhibition: assessed 10 to 15 minutes exposure. The procedure: A combustible coil according to the present invention containing bifenthrin was compared with coils containing other pyrethroid active ingredients (d-allethrin, d-phenothrin, imiprothrin, permethrin, cypermethrin, bioresmethrin, deltamethrin) as indicated in Table 2. All coils contained active ingredients in an amount that rendered them similar in cost to the current leading d-allethrin coils. The range of actives covered both knockdown and residual pyrethroids. The trial was carried out against the Dengue mosquito (Aedes aegypti). The methodology employed is as follows:
The study was conducted in a ventilated test chamber (20 cubic metres) at a temperature of between 27° C. and 28.7° C. The relative humidity was ambient and ranged from 51% to 58%.
Mixed sex adult 6 to 10 day old Dengue mosquitoes (Aedes aegypti) were used in this study. There were 50 female mosquitoes released per replicate and a variable number of male mosquitoes. The mosquitoes were collected and immobilised. Male and female mosquitoes were added to a container until 50 female mosquitoes were obtained. Because only female mosquitoes bite human subjects, the number of males present in each trial was irrelevant. The mosquitoes were allowed to recover for at least one hour before being used for testing.
A positive air flow of 0.4 metres/second was generated into the chamber and air was passively vented from the chamber.
Coil treatments were placed on the floor in the test chamber, and were allowed to burn for 5 minutes before all mosquitoes were brought into the chamber and released. The coils continued to operate during the assessments and were stopped at the completion of the test period.
Starting from 10 minutes after the mosquitoes were released, an assessment was made by one human subject of the mosquito landings and bites over a 5 minute period. Whilst seated in the chamber, the subject recorded the total number of females that initiated a bite on the subject's legs, as well as the number of females that landed without initiating biting. Mosquitoes were permitted to probe the subject but not permitted to bite the subject, and were chased away prior to this occurring.
Immediately after the 5 minute assessment period, the number of knocked down mosquitoes was recorded. All the mosquitoes were collected and removed from the chamber. After 24 hours, the number of dead mosquitoes was recorded. The same human subject was used for all assessments.
The results shown in the Table 2 are the means of four trials.
Percentage landing inhibition refers to the number of mosquitoes which landed on the subject in the absence of any treatment (untreated control), minus the number of mosquitoes which landed on the subject in the presence of a coil treatment, divided by the number of mosquitoes which landed on the subject in the absence of any treatment, expressed as a percentage. Landing inhibition was assessed from 10 to 15 minutes exposure of the Aedes aegypti mosquitoes to each burning coil treatment.
Percentage bite inhibition refers to the number of mosquitoes which probed or attempted to bite the subject in the absence of any treatment (untreated control), minus the number of mosquitoes which attempted to bite the subject in the presence of a coil treatment, divided by the number of mosquitoes which attempted to bite the subject in the absence of any treatment, expressed as a percentage. It will be appreciated that, as mosquitoes must first land before attempting to bite, of necessity, percentage bite inhibition will always be lower than or equal to percentage landing inhibition. Bite inhibition was assessed from 10 to 15 minutes exposure of the Aedes aegypti mosquitoes to each burning coil treatment.
Knockdown refers to mosquitoes present on the floor of the chamber after the 15 minute trial, which were either dead, moribund, or incapacitated (i.e. unable to fly off the floor of the chamber). […]

The next data set concerns Culex quinquefasciatus. As to the kind of experiment: Burning coil trial with mosquitoes confined in a small cage in the chamber, subject's arm inserted: landing/bite inhibition, knockdown, 24 hour mortality. Type of data set: in vivo. The conditions noted are these: caged Culex quinquefasciatus; for % KD (15 mins) / % bite inhibition / % landing inhibition: 15 minutes exposure. The procedure:
The trial detailed in Example 2 was repeated against the much more difficult to kill Culex quinquefasciatus mosquitoes. The methodology used was similar to that employed for Aedes aegypti described above, with the following variations.
One hundred female and a variable number of male Cx. quinquefasciatus were confined in a small cage which was placed in the chamber 5 minutes after the coil treatment had been ignited. For this species of mosquito, the subject's arm was inserted into the cage for determinations of landing and biting rates. The reasons for these changes in methodology compared to those used for Ae. aegypti was because Cx. quinquefasciatus are much weaker biters. This meant that satisfactory biting rates could only be achieved by confining them to a small volume.
Percentage landing inhibition, percentage bite inhibition, percentage knockdown and percentage mortality are as defined above. […] As Cx. quinquefasciatus is a more robust mosquito species the lower level of mortality after 15 minutes exposure when compared with the Ae. aegypti mosquitoes was expected.

Data set [2] is described as follows: Comparison of physical properties of pyrethroids (The Pesticide Manual). The conditions noted are these: ratio of the cited vapour pressures. It is filed as physicochemical. From the text: The present inventors compared some physical properties of bifenthrin with those of other residual pyrethroids.
Where [3] appears, read: burning coil with 0.035% imiprothrin.
The mark [4] stands for this setting: burning coil with 0.02% bifenthrin.
Where [5] appears, read: burning coil with 0.05% bifenthrin.
The mark [6] stands for this setting: burning coil with 0.10% bifenthrin.
[7] abbreviates: burning coil with 0.056% bioresmethrin.
Setting [8] is: burning coil with 0.3% cypermethrin.
[9] abbreviates: burning coil with 0.07% deltamethrin.
Where [10] appears, read: burning coil with 0.705% permethrin.
[11] abbreviates: burning coil with 0.25% d-allethrin.
Where [12] appears, read: burning coil with 0.228% d-phenothrin.

Each structure is given as a SMILES string. Like-named read-outs stand apart in the source and are kept apart here.

As for `C#CCN1CC(=O)N(COC(=O)[C@@H]2C(C=C(C)C)C2(C)C)C1=O` (mixture of isomers) [Imiprothrin, imiprothrin], the “Vapour Pressure” value in data set [1] (25° C.) was 0.0018 mPa. For the same compound, in the data set on Aedes aegypti (setting [3]), the “% KD (15 mins)” value is reported as 1%, the “24 hour % mortality (15 mins exposure)” value was found to be 7%, the “% bite inhibition” value is listed as 34% and the “% landing inhibition” value worked out at 34%.

For the compound `Cc1c(COC(=O)[C@H]2[C@@H](/C=C(\Cl)C(F)(F)F)C2(C)C)cccc1-c1ccccc1` (racemic) [Bifenthrin, 2-methylbiphenyl-3-ylmethyl (Z)-(1RS,3RS)-3-(2-chloro-3,3,3-trifluoroprop-1-enyl)-2,2-dimethylcyclopropanecarboxylate], the “24 hour % mortality (15 mins exposure)” value is recorded as 9% with Culex quinquefasciatus (setting [4]); 27% in the data set with Culex quinquefasciatus (setting [5]); 39% with Culex quinquefasciatus (setting [6]); 78% with Aedes aegypti (setting [4]); 94% in the data set on Aedes aegypti (setting [5]); 96% in the data set on Aedes aegypti (setting [6]). Besides, the “% KD (15 mins)” value in the data set with Culex quinquefasciatus (setting [4]) was found to be 1%; in the data set on Culex quinquefasciatus (setting [5]), 3%; with Culex quinquefasciatus (setting [6]), 4%; in the data set with Aedes aegypti (setting [4]) it was 15%; with Aedes aegypti (setting [5]) it was 31%; in the data set with Aedes aegypti (setting [6]), 30%. The “% bite inhibition” value in the data set with Culex quinquefasciatus (setting [4]) is listed as 96%; with Culex quinquefasciatus (setting [5]), 95%; in the data set with Culex quinquefasciatus (setting [6]), 99%; in the data set on Aedes aegypti (setting [4]) it was 95%; in the data set on Aedes aegypti (setting [5]), 99%; in the data set on Aedes aegypti (setting [6]) it was 100%. The “% landing inhibition” value was found to be 86% in the data set on Culex quinquefasciatus (setting [4]); 85% in the data set with Culex quinquefasciatus (setting [5]); 86% with Culex quinquefasciatus (setting [6]); 80% in the data set on Aedes aegypti (setting [4]); 87% in the data set with Aedes aegypti (setting [5]); 92% in the data set on Aedes aegypti (setting [6]). Further, the “Vapour Pressure” value in data set [1] (25° C.) is listed as 0.024 mPa.

With `CC(C)=C[C@@H]1[C@@H](C(=O)OCc2coc(Cc3ccccc3)c2)C1(C)C` [Bioresmethrin, bioresmethrin], the “Vapour Pressure” value in data set [1] (25° C.) is 18.6 mPa. In addition, in the data set with Aedes aegypti (setting [7]), the “% KD (15 mins)” value is given as 41%, the “24 hour % mortality (15 mins exposure)” value amounted to 23%, the “% bite inhibition” value turned out to be 99% and the “% landing inhibition” value was determined as 96%. Further, the “vapour pressure relative to bifenthrin” value in data set [2] was determined as 775 times.

Turning to `CC1(C)C(C=C(Cl)Cl)C1C(=O)OC(C#N)c1cccc(Oc2ccccc2)c1` (stereo not drawn) [Cypermethrin, cypermethrin], the “Vapour Pressure” value in data set [1] (20° C.) is recorded as 0.0002 mPa. Also, in the data set with Aedes aegypti (setting [8]), the “% KD (15 mins)” value stood at 10%, the “24 hour % mortality (15 mins exposure)” value worked out at 56%, the “% bite inhibition” value is on record as 73% and the “% landing inhibition” value worked out at 70%.

Turning to `CC1(C)[C@H](C(=O)O[C@H](C#N)c2cccc(Oc3ccccc3)c2)[C@@H]1C=C(Br)Br` [Deltamethrin, deltamethrin], the “Vapour Pressure” value in data set [1] (25° C.) is 0.0000124 mPa. In the data set on Aedes aegypti (setting [9]), the “% KD (15 mins)” value turned out to be 0%, the “24 hour % mortality (15 mins exposure)” value is reported as 12%, the “% bite inhibition” value was 57% and the “% landing inhibition” value is recorded as 57%.

`CC1(C)C(C=C(Cl)Cl)C1C(=O)OCc1cccc(Oc2ccccc2)c1` (stereo not drawn) [Permethrin, permethrin]: the “Vapour Pressure” value in data set [1] (20° C.) is 0.0025 mPa. In addition, in the data set on Aedes aegypti (setting [10]), the “% KD (15 mins)” value was 35%, the “24 hour % mortality (15 mins exposure)” value was 55%, the “% bite inhibition” value came out at 85% and the “% landing inhibition” value was 8%.

For `C=CCC1=C(C)C(OC(=O)C2C(C=C(C)C)C2(C)C)CC1=O` (stereo not drawn) [d-Allethrin, d-allethrin], in the data set with Culex quinquefasciatus (setting [11]), the “24 hour % mortality (15 mins exposure)” value is reported as 2%, the “% KD (15 mins)” value is listed as 7%, the “% bite inhibition” value stood at 94% and the “% landing inhibition” value was determined as 87%. In addition, the “Vapour Pressure” value in data set [1] (21° C.) is 0.16 mPa. For the same compound, at Aedes aegypti (setting [11]), the “% KD (15 mins)” value was 35%, the “24 hour % mortality (15 mins exposure)” value is given as 7%, the “% bite inhibition” value is on record as 100% and the “% landing inhibition” value is listed as 98%. In addition, the “24 hour % mortality (15 mins exposure)” value in the data set with Aedes aegypti (burning coil with 0.25% d-allethrin, listed as d-allethrin) is “no different from the untreated control”.

As to `CC(C)=CC1C(C(=O)OCc2cccc(Oc3ccccc3)c2)C1(C)C` (stereo not drawn) [d-Phenothrin, d-phenothrin], in data set [1] (21.4° C.), the “Vapour Pressure” value is given as 0.019 mPa. In addition, at Aedes aegypti (setting [12]), the “% KD (15 mins)” value came to 39%, the “24 hour % mortality (15 mins exposure)” value amounted to 24%, the “% bite inhibition” value turned out to be 100% and the “% landing inhibition” value was determined as 98%.

The values are drawn from patent US20070275025A1, “Combustible Mosquito Coil or Stick” (RECKITT BENCKISER (AUSTRALIA) PTY LIMITED, priority 2003, published 2007).
